# Results reported in US11999727B2 (Tango Therapeutics, Inc., priority 2020, dated 2024).
# Legend:
# [1] = system: HAP1 MTAP-deleted cell line; assay: SDMA in-cell western assay, HAP1 MTAP-deleted; format: cell-based; details: for IC50: Homo sapiens, HAP1, SDMA in-cell western, HAP1 MTAP-deleted; for MTAP intact/deleted ratio: SDMA in-cell western
# In short: (§1)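 Isogenic HAP1 pair: the MTAP-intact line expresses endogenous MTAP, and the deleted line is MTAP-null. Symmetric dimethylarginine was detected by in-cell western and IC50 values derived for each line.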
# [2] = target: T1, PRMT5 (Homo sapiens, UniProt O14744); assay: PRMT5 biochemical IC50 assay with no cofactor; details: PRMT5, no cofactor
# T1 construct: purchased Viva (custom protein)
# Text: Table 1 indicates IC50 values (μM) against PRMT5 for exemplary compounds in the presence of SAM as cofactor, with no cofactor, and with MTA as cofactor, respectively (columns 4-6). […] Ki values can be calculated from the IC50 values as described in the Examples section. As detailed in the Examples section, for the assay performed in the presence of SAM, IC50=Ki×1.5 (Ki=IC50/1.5).
# [3] = target: T1, PRMT5; assay: PRMT5 biochemical IC50 assay with SAM as cofactor; details: PRMT5, SAM as cofactor; read-out: SAM IC50
# [4] = system: HAP1 MTAP-deleted cell line; assay: Viability assay, MTAP-deleted cell line; format: cell-based; details: Homo sapiens, read-out: HAP1 MTAP deleted viability
# Text: Table 1 additionally indicates IC50 values in a viability assay for the MTAP-deleted cell line (column 10), indicating the effect of treatment with compound on cell survival.
# [5] = system: HAP1 MTAP-intact cell line; assay: SDMA in-cell western assay, HAP1 MTAP-intact; format: cell-based; details: Homo sapiens, HAP1, SDMA in-cell western, HAP1 MTAP-intact; read-out: MTAP HAP1 intact IC50
# In short: as §1
# [6] = target: T1, PRMT5; assay: PRMT5 biochemical IC50 assay with MTA as cofactor; details: PRMT5, MTA as cofactor; read-out: MTA IC50
# [7] = read-out: HAP 1 MTAP deleted IC50
# [8] = IC50 ratio HAP1 MTAP-intact / HAP1 MTAP-deleted
# [9] = read-out: HAP1 MTAP deleted IC50
# [10] = IC50 ratio HAP1 MTAP-intact vs HAP1 MTAP-deleted
# [11] = HAP1, viability assay, MTAP-deleted cell line
# T1 sequence (O14744 whole entry): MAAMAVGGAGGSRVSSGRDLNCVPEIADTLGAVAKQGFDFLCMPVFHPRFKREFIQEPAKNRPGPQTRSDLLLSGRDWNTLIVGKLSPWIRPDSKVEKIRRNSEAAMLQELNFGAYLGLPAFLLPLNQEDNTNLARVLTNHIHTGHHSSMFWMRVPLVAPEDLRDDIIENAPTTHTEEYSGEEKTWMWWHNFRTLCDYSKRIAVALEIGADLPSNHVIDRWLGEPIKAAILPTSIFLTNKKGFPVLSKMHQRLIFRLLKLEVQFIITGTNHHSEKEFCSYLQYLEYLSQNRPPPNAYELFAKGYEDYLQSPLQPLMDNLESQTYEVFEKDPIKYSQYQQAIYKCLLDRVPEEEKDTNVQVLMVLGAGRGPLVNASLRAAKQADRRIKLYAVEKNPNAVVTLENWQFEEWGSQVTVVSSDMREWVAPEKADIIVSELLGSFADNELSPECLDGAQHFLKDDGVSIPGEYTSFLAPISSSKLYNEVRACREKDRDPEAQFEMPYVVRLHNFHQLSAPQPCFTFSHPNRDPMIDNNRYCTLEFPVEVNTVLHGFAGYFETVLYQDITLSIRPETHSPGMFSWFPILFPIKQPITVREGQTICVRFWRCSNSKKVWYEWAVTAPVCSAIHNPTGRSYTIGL
# T1 sequence (Q9BQA1 whole entry partner): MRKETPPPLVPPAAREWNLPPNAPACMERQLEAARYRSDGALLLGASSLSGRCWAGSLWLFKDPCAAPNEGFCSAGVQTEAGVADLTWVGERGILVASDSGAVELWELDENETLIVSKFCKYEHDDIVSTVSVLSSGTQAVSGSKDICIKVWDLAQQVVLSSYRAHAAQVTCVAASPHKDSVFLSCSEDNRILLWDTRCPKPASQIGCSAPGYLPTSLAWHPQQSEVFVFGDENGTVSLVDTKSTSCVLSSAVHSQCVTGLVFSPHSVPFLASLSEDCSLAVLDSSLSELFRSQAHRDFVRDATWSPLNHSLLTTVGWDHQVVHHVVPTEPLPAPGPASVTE
"IC50 [1, 7] [nM]",IC50 ([2]; read-out: No Cofactor/ rel IC50) [nM],IC50 [3] [nM],IC50 [5] [nM],IC50 [6] [nM],"IC50 [1, 9] [nM]",IC50 ([2]; read-out: No Cofactor/rel IC50) [nM],SMILES,"MTAP intact/deleted ratio [1, 8]","IC50 ([4]; HAP1, viability, HAP1 MTAP-deleted cell line) [nM]","MTAP intact/deleted ratio [1, 10]","IC50 [4, 11] [nM]","IC50 ([4]; HAP1, viability IC50, MTAP-deleted cell line) [nM]","IC50 ([4]; HAP1, viability assay, HAP1 MTAP-deleted) [nM]"
< 100,< 50,< 50,< 100,< 50,,,CCc1cc(NC(=O)C(=O)N2C[C@@H](C)CC[C@@H]2c2ccc3sc(C45CC(C4)N(C)C5)nc3c2)cnc1N [Compound 1372],A (an IC50 ratio greater than or equal to 10 fold),< 1000,,,,
,,< 50,< 100,< 50,< 100,< 50,"C[C@@H]1CC[C@@H](c2ccc3nn(CCN(C)C)cc3c2)N(C(=O)C(=O)Nc2cnc(N)c(C3CC3)c2)C1 (single isomer, unassigned) [Compound 1156]",,,A (an IC50 ratio greater than or equal to 10 fold),< 1000,,
< 100,,< 50,> 1000,< 50,,< 50,"COc1ncc(NC(=O)C(=O)N2C[C@@H](C)CC[C@@H]2c2ccc3sccc3c2)cc1C(N)=O (single isomer, unassigned) [Compound 618]",A (an IC50 ratio greater than or equal to 10 fold),,,,< 1000,
,,50 to 500,> 1000,50 to 500,100 to 1000,50 to 500,"C[C@@H]1CC[C@H](c2ccc(N[C@@H]3CCN(C)C3=O)cc2)N(C(=O)C(=O)Nc2cncc(C(N)=O)c2)C1 (racemic) [Compound 427, 5-[[2-[(2R,5R)-5-Methyl-2-[4-[[(3R)-1-methyl-2-oxo-pyrrolidin-3-yl]amino]phenyl]-1-piperidyl]-2-oxo-acetyl]amino]pyridine-3-carboxamide]",A (an IC50 ratio greater than or equal to 10 fold),,,> 10000,,
,,50 to 500,> 1000,50 to 500,< 100,50 to 500,"CCc1cc(NC(=O)C(=O)N2C[C@@H](C)CC[C@@H]2c2ccc3c(c2)OCCN3)cnc1N (racemic) [Compound 870, N-(6-amino-5-ethyl-3-pyridyl)-2-[(2R,5S)-2-(3,4-dihydro-2H-1,4-benzoxazin-7-yl)-5-methyl-1-piperidyl]-2-oxo-acetamide]",A (an IC50 ratio greater than or equal to 10 fold),,,,,< 1000
,,< 50,< 100,< 50,< 100,< 50,"CCc1cc(NC(=O)C(=O)N2C[C@@H](C)CC[C@@H]2c2ccc3nn(C4CC(C)(C)N(C)C(C)(C)C4)cc3c2)cnc1N (racemic) [Compound 1140, N-(6-Amino-5-ethyl-3-pyridyl)-2-oxo-2-[rac-(2R,5S)-5-methyl-2-[2-(1,2,2,6,6-pentamethyl-4-piperidyl)indazol-5-yl]-1-piperidyl]acetamide]",,,A (an IC50 ratio greater than or equal to 10 fold),< 1000,,
,,< 50,< 100,< 50,< 100,< 50,"Cc1cc(NC(=O)C(=O)N2C[C@@H](C)CC[C@@H]2c2ccc3sc(C4CCN(CCF)CC4)nc3c2)cnc1N [Compound 1114, N-(6-amino-5-methylpyridin-3-yl)-2-((2R,5S)-2-(2-(1-(2-fluoroethyl)piperidin-4-yl)benzo[d]thiazol-5-yl)-5-methylpiperidin-1-yl)-2-oxoacetamide]",,,A (an IC50 ratio greater than or equal to 10 fold),< 1000,,
,,50 to 500,> 1000,< 50,100 to 1000,50 to 500,"C[C@H]1CC[C@H]2CCCC[C@H]2N1C(=O)C(=O)Nc1cncc(C(N)=O)c1 (single isomer, unassigned) [Compound 245]",A (an IC50 ratio greater than or equal to 10 fold),,,1000 to 10000,,
